Laboratory results: US12090146B2, “Substituted-pyridinyl compounds and uses thereof” (Bionomics Limited, priority 2018, dated 2024)

Legend:
hKv3.2 = target: T1, hKv3.2 (Homo sapiens, UniProt Q96PR1); assay: Automated patch clamp (Patchliner) whole-cell electrophysiology, Kv3.2; type: cell-based; conditions: 10 μM compound, CHO-K1 cells stably expressing hKv3.2; for activation at 10 µM: % potentiation of peak current at −10 mV voltage step vs vehicle; for Kv3.2 Activity at 10 μM Voltage Shift (mV): voltage shift of the IV curve at V1/2
T1 construct: expressed in transfected cells
T1 sequence (Q96PR1 1-638): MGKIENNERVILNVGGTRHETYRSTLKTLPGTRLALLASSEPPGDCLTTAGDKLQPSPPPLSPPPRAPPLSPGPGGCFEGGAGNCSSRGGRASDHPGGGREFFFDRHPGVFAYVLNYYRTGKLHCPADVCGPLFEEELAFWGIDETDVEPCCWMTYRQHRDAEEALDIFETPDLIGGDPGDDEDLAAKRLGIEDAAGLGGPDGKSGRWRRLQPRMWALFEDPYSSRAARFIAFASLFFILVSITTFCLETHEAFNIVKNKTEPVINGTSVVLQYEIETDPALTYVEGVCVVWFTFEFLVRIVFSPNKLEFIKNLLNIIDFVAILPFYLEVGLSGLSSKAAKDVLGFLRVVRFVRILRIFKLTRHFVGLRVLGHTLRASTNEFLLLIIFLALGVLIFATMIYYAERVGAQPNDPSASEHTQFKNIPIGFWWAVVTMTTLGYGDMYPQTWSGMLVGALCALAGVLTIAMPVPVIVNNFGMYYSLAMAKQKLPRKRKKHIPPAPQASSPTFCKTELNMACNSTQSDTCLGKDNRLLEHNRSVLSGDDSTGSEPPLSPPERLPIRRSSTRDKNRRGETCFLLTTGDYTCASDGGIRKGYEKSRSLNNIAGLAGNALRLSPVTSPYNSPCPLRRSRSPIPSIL
Experimental: hKv3.1, hKv3.2, hKv3.3, and hKv3.4 were stably expressed in CHO-K1 (Chinese hamster ovary) cells and kept under constant antibiotic selection. For in vitro assays, cells were maintained in appropriate growth medium at 37° C. and 5% CO2 in a humidified incubator.
hKv3.X expressing cells were plated in T-25 flasks for 3-4 days at 37° C. (no selection antibiotic) prior to use and grown to 80% confluence. Cells were washed twice with PBS (calcium and magnesium free) and detached with a 5-minute treatment at 37° C. with 2-3 mls of Accutase®. Cells were collected, and flask was washed in CHO-SFM II media (Life Technologies Gibco), centrifuged for 2 minutes at ˜110×g and resuspended to obtain a single cell suspension of ˜2-3×10^6 cells/ml.
The intracellular solution contained the following (in mM): KCl 50, NaCl 10, KF 60, EGTA 20, HEPES 10, adjusted to pH 7.2 with KOH and an osmolarity of 285 mOsmol. Seal enhancer was purchased from Nanion (80 mM NaCl, 3 mM KCl, 10 mM MgCl2, 35 mM CaCl2), 10 mM HEPES, pH7.4, 298 mOsmol. The external solution contained (in mM): NaCl 140, KCl 4, CaCl2) 2, MgCl2 1, HEPES 10, Glucose 5, adjusted to pH7.4 and an osmolarity of 298 mOsmol.
All compounds were initially tested at 10 uM at a final DMSO concentration of 0.33%. Compounds were dissolved in dimethylsulfoxide (DMSO) at a stock concentration of 30 mM. The compound was further diluted 1:10 to give a stock concentration of 3 mM in DMSO. The final assay solution was diluted 1:300 in External solution to give a final concentration of 10 uM. For the DMSO Control Buffer 30 uL of DMSO was added to 10 mL buffer.
All electrophysiological recordings were performed at ambient temperature (21-23° C.) using automated patch clamp (Patchliner, Nanion Technologies GmbH) in the whole-cell configuration.
Cell membrane potentials were held at −80 mV, and currents were evoked by voltage steps (1000 ms duration) from −60 to +60 mV in 10 mV increments. This was performed first with vehicle (0.33% DMSO) and then with 10 uM compound, after a 3-minute incubation period. Data was taken from 4 cells per assay.
The recordings were analysed and selected using peak current amplitude (>100 pA at the −10 mV voltage step) in the absence of compound to eliminate unsuitable cells from analysis. Peak current amplitude was measured and recorded for each voltage step and data was normalised to the maximum current at +60 mV. The normalised Kv3.x currents following addition of the compound were then compared with the currents recorded prior to compound addition (vehicle control). Positive modulation was determined as % potentiation at the voltage step of −10 mV=[current (cmpd)/current (veh)]*100−100. % potentiation ≥50% was considered acceptable. In addition, voltage shift of the IV curve at V1/2 was measured. V1/2 of ≥−5 mV was also considered acceptable. IV curves were plotted in GraphPad Prism (software version 6.0) and fitted with a Boltzmann equation, where V1/2 is the voltage at half-maximal activation.

hKv3.1 = target: T2, hKv3.1 (Homo sapiens, UniProt P48547); assay: Automated patch clamp (Patchliner) whole-cell electrophysiology, Kv3.1; type: cell-based; conditions: 10 μM compound, CHO-K1 cells stably expressing hKv3.1; for Kv3.1 Activity at 10 μM Potentiation (%): % potentiation of peak current at −10 mV voltage step vs vehicle; for Kv3.1 Activity at 10 μM Voltage Shift (mV): voltage shift of the IV curve at V1/2
T2 construct: expressed in transfected cells
T2 sequence (P48547 1-511): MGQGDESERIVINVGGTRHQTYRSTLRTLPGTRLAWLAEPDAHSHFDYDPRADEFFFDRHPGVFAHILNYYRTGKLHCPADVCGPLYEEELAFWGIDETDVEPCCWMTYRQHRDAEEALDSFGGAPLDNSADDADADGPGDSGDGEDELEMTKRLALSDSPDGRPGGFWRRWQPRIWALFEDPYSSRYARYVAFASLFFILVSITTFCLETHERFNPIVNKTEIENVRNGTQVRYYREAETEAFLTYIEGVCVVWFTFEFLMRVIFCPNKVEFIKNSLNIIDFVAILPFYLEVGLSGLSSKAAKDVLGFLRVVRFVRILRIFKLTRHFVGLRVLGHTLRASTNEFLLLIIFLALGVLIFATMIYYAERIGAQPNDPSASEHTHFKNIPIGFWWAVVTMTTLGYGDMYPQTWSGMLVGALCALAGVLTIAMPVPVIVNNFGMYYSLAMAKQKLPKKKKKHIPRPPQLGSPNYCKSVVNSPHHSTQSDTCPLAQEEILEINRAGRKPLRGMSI
Outline: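 CHO-K1 cells stably expressing hKv3.x recorded by whole-cell automated patch clamp at 21-23 °C, held at −80 mV with 1000 ms steps from −60 to +60 mV, vehicle then 10 uM compound (0.33% DMSO, 3-min incubation), 4 cells. Currents normalized to +60 mV; % potentiation at −10 mV and Boltzmann V1/2 shift reported.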

activation at 10 µM (hKv3.2)	Kv3.2 Activity at 10 μM Voltage Shift (mV) (hKv3.2)	Kv3.1 Activity at 10 μM Potentiation (%) (hKv3.1)	Kv3.1 Activity at 10 μM Voltage Shift (mV) (hKv3.1)	Structure (SMILES)
93%	−5.37 mV	227%	−7.49 mV	O=C1NC2(CCCC2)C(=O)N1c1ccnc(Oc2ccc3c(c2)OC(F)(F)O3)c1F [Example 92, 3-[2-[(2,2-difluoro-1,3-benzodioxol-5-yl)oxy]-3-fluoro-4-pyridyl]-1,3-diazaspiro[4.4]nonane-2,4-dione]
71%	−6.55 mV	142%	−8.79 mV	O=C1NC2(CCCCC2)C(=O)N1c1ccnc(Oc2ccc3c(c2)OC(F)(F)O3)c1F [Example 93, 3-[2-[(2,2-difluoro-1,3-benzodioxol-5-yl)oxy]-3-fluoro-4-pyridyl]-1,3-diazaspiro[4.5]decane-2,4-dione]
